# Measured values as given in ChEMBL document CHEMBL5537118, “Synthesis of cinnamoyl tethered indoline derivatives with anti-inflammatory and antioxidant activities” (Eur J Med Chem, 2024).
# Activity calls are given as the source filed them. No cut-off for these calls is given here.
# Columns and labels:
# [1] = system: Mus musculus; assay: Antiinflammatory activity in carrageenan-induced Kunming mouse model of paw edema assessed as paw volume at 30 mg/kg, IG pretreated for 1 hr followed by carrageenan administration and measured after 1 hr by digital plethysmometer (reference value: 0.407 +/- 0.023 mL); format: functional; settings: time 2 hrs
# [2] = system: Mus musculus; assay: Antiinflammatory activity in carrageenan-induced Kunming mouse model of paw edema assessed as edema inhibition at 30 mg/kg, IG pretreated for 1 hr followed by carrageenan administration and measured after 3 hrs relative to control; format: functional; settings: po, time 4 hrs
# [3] = system: Mus musculus; assay: Antiinflammatory activity in carrageenan-induced Kunming mouse model of paw edema assessed as paw volume at 10 mg/kg, ip pretreated for 1 hr followed by carrageenan administration and measured after 5 hrs by digital plethysmometer (reference value: 0.362 +/- 0.016 mL); format: functional; settings: time 6 hrs
# [4] = system: RAW264.7; assay: Inhibition of ROS burst in rotenone-stimulated mouse RAW264.7 cells assessed as reduction in ROS level at 0.5 to 2 uM pretreated for 30 mins followed by rotenone addition and measured after 4 hrs by DCFH-DA staining based flow cytometry analysis; format: functional, cell-based; settings: dose 0.5-2 µM, time 4.5 hrs
# [5] = system: RAW264.7; assay: Effect on HO-1 protein expression in mouse RAW264.7 cells at 0.5 to 2 uM incubated for 24 hrs by Western blot analysis; format: functional, cell-based; settings: dose 0.5-2 µM
# [6] = system: Mus musculus; assay: Antiinflammatory activity in carrageenan-induced Kunming mouse model of paw edema assessed as paw volume at 30 mg/kg, ip pretreated for 1 hr followed by carrageenan administration and measured after 5 hrs by digital plethysmometer (reference value: 0.362 +/- 0.016 mL); format: functional; settings: time 6 hrs
# [7] = system: RAW264.7; assay: Antiinflammatory activity in LPS-induced mouse RAW264.7 cells assessed as reduction in TNF-alpha level incubated for 24 hrs by ELISA; format: functional, cell-based
# [8] = system: Mus musculus; assay: Antiinflammatory activity in carrageenan-induced Kunming mouse model of paw edema assessed as edema inhibition at 30 mg/kg, IG pretreated for 1 hr followed by carrageenan administration and measured after 1 hr relative to control; format: functional; settings: po, time 2 hrs
# [9] = system: Mus musculus; assay: Antiinflammatory activity in carrageenan-induced Kunming mouse model of paw edema assessed as paw volume at 1 mg/kg, ip pretreated for 1 hr followed by carrageenan administration and measured after 3 hrs by digital plethysmometer (reference value: 0.377 +/- 0.018 mL); format: functional; settings: time 4 hrs
# [10] = system: Mus musculus; assay: Antiinflammatory activity in carrageenan-induced Kunming mouse model of paw edema assessed as edema inhibition at 10 mg/kg, ip pretreated for 1 hr followed by carrageenan administration and measured after 1 hr relative to control; format: functional; settings: time 2 hrs
# [11] = system: Mus musculus; assay: Antiinflammatory activity in carrageenan-induced Kunming mouse model of paw edema assessed as edema inhibition at 30 mg/kg, ip pretreated for 1 hr followed by carrageenan administration and measured after 1 hr relative to control; format: functional; settings: time 2 hrs
# [12] = system: Mus musculus; assay: Antiinflammatory activity in carrageenan-induced Kunming mouse model of paw edema assessed as edema inhibition at 30 mg/kg, ip pretreated for 1 hr followed by carrageenan administration and measured after 5 hrs relative to control; format: functional; settings: time 6 hrs
# [13] = system: RAW264.7; assay: Antiinflammatory activity in LPS-induced mouse RAW264.7 cells assessed as inhibition of iNOS protein expression at around 2 uM incubated for 24 hrs by Western blot analysis relative to control; format: functional
# [14] = system: RAW264.7; assay: Inhibition of NF-kappaB activation in LPS-induced mouse RAW264.7 cells assessed as inhibition of IkappaBalpha phosphorylation by measuring reduction in p-IkappaBalpha/IkappaBalpha expression at 0.5 to 2 uM by Western blot analysis; format: cell-based; settings: dose 0.5-2 µM
# [15] = system: RAW264.7; assay: Antiinflammatory activity in LPS-induced mouse RAW264.7 cells assessed as inhibition of NO production pretreated for 1 hr followed by LPS addition and measured after 24 hrs by griess reagent based assay; format: functional, cell-based
# [16] = system: Mus musculus; assay: Antiinflammatory activity in carrageenan-induced Kunming mouse model of paw edema assessed as paw volume at 1 mg/kg, ip pretreated for 1 hr followed by carrageenan administration and measured after 5 hrs by digital plethysmometer (reference value: 0.362 +/- 0.016 mL); format: functional; settings: time 6 hrs
# [17] = system: Mus musculus; assay: Antiinflammatory activity in carrageenan-induced Kunming mouse model of paw edema assessed as paw volume at 30 mg/kg, IG pretreated for 1 hr followed by carrageenan administration and measured after 5 hrs by digital plethysmometer (reference value: 0.353 +/- 0.024 mL); format: functional; settings: time 6 hrs
# [18] = system: RAW264.7; assay: Inhibition of ROS burst in rotenone-stimulated mouse RAW264.7 cells assessed as reduction in ROS level at 1 uM pretreated for 30 mins followed by rotenone addition and measured after 4 hrs by DCFH-DA staining based flow cytometry analysis relative to control; format: functional; settings: time 4.5 hrs
# [19] = system: Mus musculus; assay: Antiinflammatory activity in carrageenan-induced Kunming mouse model of paw edema assessed as edema inhibition at 1 mg/kg, ip pretreated for 1 hr followed by carrageenan administration and measured after 5 hrs relative to control; format: functional; settings: time 6 hrs
# [20] = system: Mus musculus; assay: Antiinflammatory activity in carrageenan-induced Kunming mouse model of paw edema assessed as edema inhibition at 30 mg/kg, ip pretreated for 1 hr followed by carrageenan administration and measured after 3 hrs relative to control; format: functional; settings: time 4 hrs
smiles,measurement,setting,value
O=C(/C=C/c1ccc(O)c(O)c1)NCCCN1CCc2cc(Cl)ccc21,Activity,[1],0.339 mL
same,inhibition in vivo at 30 mg/kg,[2],50%
same,Activity,[3],0.155 mL
same,inhibition,[4],Active
same,Activity,[5],inactive
same,Activity,[6],0.137 mL
same,Activity,[7],Dose-Dependent Effect
same,IC50,"[7]; RAW264.7, 24 h",1.52 µM
same,inhibition in vivo at 30 mg/kg,[8],24.6%
same,Activity,[9],0.267 mL
same,inhibition in vivo at 10 mg/kg,[10],75.7%
same,inhibition in vivo at 30 mg/kg,[11],87.1%
same,inhibition in vivo at 30 mg/kg,[12],94.1%
same,inhibition at 2 µM,[13],50%
same,inhibition,[14],Active
same,IC50,[15],0.9 µM
same,Activity,[16],0.225 mL
same,Activity,[17],0.227 mL
same,inhibition at 1 µM,[18],~100%
same,inhibition in vivo at 1 mg/kg,[19],57.3%
same,inhibition in vivo at 30 mg/kg,[20],95.9%
